Measurements reported in US20110077237A1, “KINASE INHIBITORS” (VERTEX PHARMACEUTICALS INCORPORATED, priority 2007, published 2011).

Target: PKC theta (Homo sapiens, UniProt Q04759)
Assay: PKC Theta III assay, similar to PKC theta I with fluorescence read out
Type: biochemical
Settings: fluorescence read out rather than UV
Experimental: An assay buffer solution was prepared which consisted of 100 mM HEPES (pH 7.5), 10 mM MgCl2, 25 mM NaCl, 0.1 mM EDTA and 0.01% Brij. […] To 60 μL of this enzyme buffer, in a 384 well plate, was added 2 μL of VRT stock solution in DMSO. The mixture was allowed to equilibrate for 10 mins at 30° C. The enzyme reaction was initiated by the addition of 5 μL stock ATP solution prepared in assay buffer to a final assay concentration of 240 μM. Initial rate data was determined from the rate of change of absorbance at 340 nm (corresponding to stoichiometric consumption of NADH) using a Molecular Devices Spectramax plate reader (Sunnyvale, Calif.) over 15 mins at 30° C. For each Ki determination 12 data points covering the VRT concentration range of 0-20 μM were obtained in duplicate (DMSO stocks were prepared from an initial 10 mM VRT stock with subsequent 1:2 serial dilutions). Ki values were calculated from initial rate data by non-linear regression using the Prism software package (Prism 4.0a, Graphpad Software, San Diego, Calif.).
Compounds tested in an assay similar to PKC theta I above with a fluorescence read out rather than a UV read out gave the following results: D compounds are (2-aminopyridin-3-yl)(6-(1-benzylpiperidin-4-ylamino)pyridin-2-yl)methanone, and (2-aminopyridin-3-yl)(6-(2,3-dihydroxypropylamino)pyridin-2-yl)methanone (naming by ChemDraw Ultre version 10.0).

PKC theta, sequence (Q04759 whole entry): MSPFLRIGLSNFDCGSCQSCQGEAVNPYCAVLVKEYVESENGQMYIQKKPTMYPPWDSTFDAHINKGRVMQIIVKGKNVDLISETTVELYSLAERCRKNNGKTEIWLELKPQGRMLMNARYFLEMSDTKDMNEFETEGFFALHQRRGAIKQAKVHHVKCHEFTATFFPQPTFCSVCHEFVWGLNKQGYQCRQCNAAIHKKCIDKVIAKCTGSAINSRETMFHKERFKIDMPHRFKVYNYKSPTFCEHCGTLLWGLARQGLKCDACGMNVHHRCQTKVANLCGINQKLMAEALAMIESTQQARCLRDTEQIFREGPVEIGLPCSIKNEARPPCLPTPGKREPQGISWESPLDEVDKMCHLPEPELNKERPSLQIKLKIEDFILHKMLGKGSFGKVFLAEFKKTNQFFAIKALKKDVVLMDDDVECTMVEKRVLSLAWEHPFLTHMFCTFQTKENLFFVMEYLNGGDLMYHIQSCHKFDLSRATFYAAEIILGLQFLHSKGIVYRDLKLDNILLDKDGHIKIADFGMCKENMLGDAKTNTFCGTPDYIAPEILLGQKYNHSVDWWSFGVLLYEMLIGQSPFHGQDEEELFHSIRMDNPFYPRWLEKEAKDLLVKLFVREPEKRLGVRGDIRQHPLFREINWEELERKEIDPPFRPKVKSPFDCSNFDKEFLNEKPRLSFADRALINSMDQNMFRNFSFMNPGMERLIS

Question: With `Nc1ncccc1C(=O)c1cccc(NC2CCN(Cc3ccccc3)CC2)n1` [(2-aminopyridin-3-yl)(6-(1-benzylpiperidin-4-ylamino)pyridin-2-yl)methanone] as the compound, how does the Ki read?
Answer: Its Ki is over 2800 nM.
